Converted amounts (≈) assume the structure as drawn. Like-named read-outs stand apart in the source and are kept apart here.
System: non-gonococcal Neisseria
Test: MIC determination for non-gonococcal Neisseria, agar dilution
Format: cell-based, Neisseria species
Conditions: read-out: Minimum inhibitory concentration
Text: The 2024 WHO N. gonorrhoeae reference strains were used for quality control. Only whole MIC doubling dilutions are reported. Clinical breakpoints or the epidemiological cutoff (ECOFF, to indicate azithromycin resistance) from EUCAST (v14.0, https://www.eucast.org/clinical_breakpoints) were used to classify isolates as antimicrobial susceptible or resistant. […] Two times the standard inoculum defined by CLSI was used to establish consistent growth in untreated control samples for some strains. In vitro time-kill assays were performed according to CLSI guidelines[65] using Columbia Broth (BD Difco) supplemented with 1% IsoVitaleX Enrichment (BD). Viable bacterial counts were generated by plating 10-fold serially diluted samples on GC agar plates containing 1% IsoVitaleX Enrichment (BD).

## Cc1c(CN(C)C(=O)/C=C/c2cnc3c(c2)N[C@H](C)[C@H](O)C(=O)N3)oc2ccccc12 [Debio 1453]
Neisseria mucosa 4, Replicate 1
  MIC: 1 µg/mL (≈ 2.38 µM)
Neisseria mucosa 4, Replicate 2
  MIC: 1 µg/mL (≈ 2.38 µM)
Neisseria mucosa 4, Replicate 3
  MIC: 1 µg/mL (≈ 2.38 µM)
Neisseria mucosa 5, Consensus
  MIC: 0.5 µg/mL (≈ 1.19 µM)
Neisseria mucosa 5, Replicate 1
  MIC: 0.25 µg/mL (≈ 0.595 µM)
Neisseria mucosa 5, Replicate 2
  MIC: 0.5 µg/mL (≈ 1.19 µM)
Neisseria mucosa 5, Replicate 3
  MIC: 0.5 µg/mL (≈ 1.19 µM)
Neisseria mucosa 6, Consensus
  MIC: 0.5 µg/mL (≈ 1.19 µM)
Neisseria mucosa 6, Replicate 1
  MIC: 0.25 µg/mL (≈ 0.595 µM)
Neisseria mucosa 6, Replicate 2
  MIC: 0.5 µg/mL (≈ 1.19 µM)
Neisseria mucosa 6, Replicate 3
  MIC: 0.5 µg/mL (≈ 1.19 µM)
Neisseria mucosa 7, Consensus
  MIC: 0.25 µg/mL (≈ 0.595 µM)
Neisseria mucosa 7, Replicate 1
  MIC: 0.25 µg/mL (≈ 0.595 µM)
Neisseria mucosa 7, Replicate 2
  MIC: 0.25 µg/mL (≈ 0.595 µM)
Neisseria mucosa 7, Replicate 3
  MIC: 0.25 µg/mL (≈ 0.595 µM)
Neisseria mucosa 8, Consensus
  MIC: 1 µg/mL (≈ 2.38 µM)
Neisseria mucosa 8, Replicate 1
  MIC: 1 µg/mL (≈ 2.38 µM)
Neisseria mucosa 8, Replicate 2
  MIC: 1 µg/mL (≈ 2.38 µM)
Neisseria mucosa 8, Replicate 3
  MIC: 1 µg/mL (≈ 2.38 µM)
Neisseria mucosa 9, Consensus
  MIC: 2 µg/mL (≈ 4.76 µM)
Neisseria mucosa 9, Replicate 1
  MIC: 1 µg/mL (≈ 2.38 µM)
Neisseria mucosa 9, Replicate 2
  MIC: 2 µg/mL (≈ 4.76 µM)
Neisseria mucosa 9, Replicate 3
  MIC: 2 µg/mL (≈ 4.76 µM)
Neisseria perflava 1, Consensus
  MIC: 0.25 µg/mL (≈ 0.595 µM)
Neisseria perflava 1, Replicate 1
  MIC: 0.25 µg/mL (≈ 0.595 µM)
Neisseria perflava 1, Replicate 2
  MIC: 0.25 µg/mL (≈ 0.595 µM)
Neisseria perflava 1, Replicate 3
  MIC: 0.25 µg/mL (≈ 0.595 µM)
Neisseria perflava 2, Consensus
  MIC: 0.032 µg/mL (≈ 0.0761 µM)
Neisseria perflava 2, Replicate 1
  MIC: 0.032 µg/mL (≈ 0.0761 µM)
Neisseria perflava 2, Replicate 2
  MIC: 0.032 µg/mL (≈ 0.0761 µM)
Neisseria perflava 2, Replicate 3
  MIC: 0.032 µg/mL (≈ 0.0761 µM)
Neisseria perflava 3, Consensus
  MIC: 0.032 µg/mL (≈ 0.0761 µM)
Neisseria perflava 3, Replicate 1
  MIC: 0.032 µg/mL (≈ 0.0761 µM)
Neisseria perflava 3, Replicate 2
  MIC: 0.032 µg/mL (≈ 0.0761 µM)
Neisseria perflava 3, Replicate 3
  MIC: 0.032 µg/mL (≈ 0.0761 µM)
Neisseria perflava 4, Consensus
  MIC: 0.25 µg/mL (≈ 0.595 µM)
Neisseria perflava 4, Replicate 1
  MIC: 0.25 µg/mL (≈ 0.595 µM)
Neisseria perflava 4, Replicate 2
  MIC: 0.25 µg/mL (≈ 0.595 µM)
Neisseria perflava 4, Replicate 3
  MIC: 0.25 µg/mL (≈ 0.595 µM)
Neisseria perflava 6, Consensus
  MIC: 0.25 µg/mL (≈ 0.595 µM)
Neisseria perflava 6, Replicate 1
  MIC: 0.25 µg/mL (≈ 0.595 µM)
Neisseria perflava 6, Replicate 2
  MIC: 0.5 µg/mL (≈ 1.19 µM)
Neisseria perflava 6, Replicate 3
  MIC: 0.25 µg/mL (≈ 0.595 µM)
Neisseria perflava 7, Consensus
  MIC: 0.5 µg/mL (≈ 1.19 µM)
Neisseria perflava 7, Replicate 1
  MIC: 0.5 µg/mL (≈ 1.19 µM)
Neisseria perflava 7, Replicate 2
  MIC: 0.5 µg/mL (≈ 1.19 µM)
Neisseria perflava 7, Replicate 3
  MIC: 0.5 µg/mL (≈ 1.19 µM)
Neisseria perflava 8, Consensus
  MIC: 0.25 µg/mL (≈ 0.595 µM)
Neisseria perflava 8, Replicate 1
  MIC: 0.25 µg/mL (≈ 0.595 µM)
Neisseria perflava 8, Replicate 2
  MIC: 0.5 µg/mL (≈ 1.19 µM)
Neisseria perflava 8, Replicate 3
  MIC: 0.25 µg/mL (≈ 0.595 µM)
Neisseria perflava 9, Consensus
  MIC: 0.5 µg/mL (≈ 1.19 µM)
Neisseria perflava 9, Replicate 1
  MIC: 0.25 µg/mL (≈ 0.595 µM)
Neisseria perflava 9, Replicate 2
  MIC: 0.5 µg/mL (≈ 1.19 µM)
Neisseria perflava 9, Replicate 3
  MIC: 0.5 µg/mL (≈ 1.19 µM)
Neisseria perflava 10, Consensus
  MIC: 0.5 µg/mL (≈ 1.19 µM)
Neisseria perflava 10, Replicate 1
  MIC: 0.5 µg/mL (≈ 1.19 µM)
Neisseria perflava 10, Replicate 2
  MIC: 0.5 µg/mL (≈ 1.19 µM)
Neisseria perflava 10, Replicate 3
  MIC: 0.5 µg/mL (≈ 1.19 µM)
Neisseria perflava 11, Consensus
  MIC: 1 µg/mL (≈ 2.38 µM)
Neisseria perflava 11, Replicate 1
  MIC: 1 µg/mL (≈ 2.38 µM)
Neisseria perflava 11, Replicate 2
  MIC: 1 µg/mL (≈ 2.38 µM)
Neisseria perflava 11, Replicate 3
  MIC: 0.5 µg/mL (≈ 1.19 µM)
Neisseria perflava 12, Consensus
  MIC: 0.5 µg/mL (≈ 1.19 µM)
Neisseria perflava 12, Replicate 1
  MIC: 0.5 µg/mL (≈ 1.19 µM)
Neisseria perflava 12, Replicate 2
  MIC: 0.5 µg/mL (≈ 1.19 µM)
Neisseria perflava 12, Replicate 3
  MIC: 0.5 µg/mL (≈ 1.19 µM)
Neisseria perflava 13, Consensus
  MIC: 0.25 µg/mL (≈ 0.595 µM)
Neisseria perflava 13, Replicate 1
  MIC: 0.25 µg/mL (≈ 0.595 µM)
Neisseria perflava 13, Replicate 2
  MIC: 0.25 µg/mL (≈ 0.595 µM)
Neisseria perflava 13, Replicate 3
  MIC: 0.25 µg/mL (≈ 0.595 µM)
Neisseria perflava 14, Consensus
  MIC: 0.5 µg/mL (≈ 1.19 µM)
Neisseria perflava 14, Replicate 1
  MIC: 0.5 µg/mL (≈ 1.19 µM)
Neisseria perflava 14, Replicate 2
  MIC: 0.5 µg/mL (≈ 1.19 µM)
Neisseria perflava 14, Replicate 3
  MIC: 0.5 µg/mL (≈ 1.19 µM)
Neisseria perflava 15, Consensus
  MIC: 0.5 µg/mL (≈ 1.19 µM)
Neisseria perflava 15, Replicate 1
  MIC: 0.5 µg/mL (≈ 1.19 µM)
Neisseria perflava 15, Replicate 2
  MIC: 0.5 µg/mL (≈ 1.19 µM)
Neisseria perflava 15, Replicate 3
  MIC: 0.5 µg/mL (≈ 1.19 µM)
Neisseria perflava 16, Consensus
  MIC: 0.5 µg/mL (≈ 1.19 µM)
Neisseria perflava 16, Replicate 1
  MIC: 0.5 µg/mL (≈ 1.19 µM)
Neisseria perflava 16, Replicate 2
  MIC: 0.5 µg/mL (≈ 1.19 µM)
Neisseria perflava 16, Replicate 3
  MIC: 1 µg/mL (≈ 2.38 µM)
Neisseria perflava 17, Consensus
  MIC: 0.5 µg/mL (≈ 1.19 µM)
Neisseria perflava 17, Replicate 1
  MIC: 0.5 µg/mL (≈ 1.19 µM)
Neisseria perflava 17, Replicate 2
  MIC: 0.5 µg/mL (≈ 1.19 µM)
Neisseria perflava 17, Replicate 3
  MIC: 0.5 µg/mL (≈ 1.19 µM)
Neisseria perflava 18, Replicate 2
  MIC: 0.25 µg/mL (≈ 0.595 µM)
Neisseria perflava 19, Consensus
  MIC: 1 µg/mL (≈ 2.38 µM)
Neisseria perflava 19, Replicate 1
  MIC: 1 µg/mL (≈ 2.38 µM)
Neisseria perflava 19, Replicate 2
  MIC: 1 µg/mL (≈ 2.38 µM)
Neisseria perflava 19, Replicate 3
  MIC: 1 µg/mL (≈ 2.38 µM)
Neisseria perflava 20, Consensus
  MIC: 0.5 µg/mL (≈ 1.19 µM)
Neisseria perflava 20, Replicate 1
  MIC: 0.5 µg/mL (≈ 1.19 µM)
Neisseria perflava 20, Replicate 2
  MIC: 0.5 µg/mL (≈ 1.19 µM)
Neisseria perflava 20, Replicate 3
  MIC: 0.5 µg/mL (≈ 1.19 µM)
Neisseria perflava 21, Consensus
  MIC: 1 µg/mL (≈ 2.38 µM)
Neisseria perflava 21, Replicate 1
  MIC: 1 µg/mL (≈ 2.38 µM)
Neisseria perflava 21, Replicate 2
  MIC: 1 µg/mL (≈ 2.38 µM)
Neisseria perflava 21, Replicate 3
  MIC: 1 µg/mL (≈ 2.38 µM)
Neisseria perflava 22, Consensus
  MIC: 1 µg/mL (≈ 2.38 µM)
Neisseria perflava 22, Replicate 1
  MIC: 1 µg/mL (≈ 2.38 µM)
Neisseria perflava 22, Replicate 2
  MIC: 1 µg/mL (≈ 2.38 µM)
Neisseria perflava 22, Replicate 3
  MIC: 1 µg/mL (≈ 2.38 µM)
Neisseria perflava 23, Consensus
  MIC: 0.5 µg/mL (≈ 1.19 µM)
Neisseria perflava 23, Replicate 1
  MIC: 0.5 µg/mL (≈ 1.19 µM)
Neisseria perflava 23, Replicate 2
  MIC: 0.5 µg/mL (≈ 1.19 µM)
Neisseria perflava 23, Replicate 3
  MIC: 0.5 µg/mL (≈ 1.19 µM)
Neisseria perflava 25, Consensus
  MIC: 1 µg/mL (≈ 2.38 µM)
Neisseria perflava 25, Replicate 1
  MIC: 1 µg/mL (≈ 2.38 µM)
Neisseria perflava 25, Replicate 2
  MIC: 1 µg/mL (≈ 2.38 µM)

Reference: publication PMC12446476 (Nature Communications, 2025)
